Results: patent US20240400604A1, “NUCLEOSIDE TRIPHOSPHATE PHOTOAFFINITY PROBE, METHOD FOR PREPARING SAME, AND APPLICATIONS THEREOF” (SHANDONG UNIVERSITY, priority 2023, published 2024)

What was measured:
[1] = test system: GTP-binding proteins in HEK 293T cell lysates; experiment: In-gel fluorescence imaging of HEK 293T cell lysate labeled with the GTP probes; details: competitor incubated on ice 10 minutes before probe; 50 μM GTP-O probe (FIG. 11)
Protocol: Appropriate amount cells were incubated on ice for 30 min in 1% lysis buffer (1% Triton X-100, 50 mM HEPES (pH 7.4), 150 mM NaCl, supplemented with phosphatase inhibitor A, phosphatase inhibitor B, and protease inhibitor right before use) at 5-10 times the cell volume. Vortexing for 5 seconds every 10 minutes. The cell lysates were centrifuged at 12,000 rpm at 4° C. for 30 min, and the supernatants were passed through an Amersham NAP-5 column to remove endogenous nucleosides. The proteins were quantified using a Bradford protein assay kit. Approximately 100 μg protein was diluted with 0.1% lysis buffer (0.1% Triton X-100, 50 mM HEPES, 150 mM sodium chloride). To the solution was added 1 mM magnesium chloride, the GTP probe and competitors to designated concentrations. The final volume for the reaction was 100 μL and the final protein concentration was […]. After incubated on ice, the solution was irradiated with 365-nm UV light for 30 min. To the solution were added freshly prepared tris-(2-carboxyethyl)phosphine (TCEP) until its concentration reached 1 mM, and a CuAAC reaction mixture to reach a final concentration of 1 mM CuSO4, 0.1 mM tris[(1-benzyl-1H-1,2,3-triazol-4-yl)methyl]amine (TBTA), and 0.1 mM rhodamine β-PEG3-azide. The mixture was incubated at room temperature for 2 hrs and then precipitated in a solution of chloroform: methanol: water (4:3:1, v/v). After washing with cold methanol and air dried, the protein pellet was dissolved in 30 μL 4% SDS buffer (4% SDS, 50 mM HEPES (pH 7.4), 150 mM NaCl, 50 mM Trolamine). The protein concentration was determined using a BCA protein assay kit. A solution of approximately 20 μg proteins was added 4×loading buffer (0.25M Trometamol, pH=6.8, 4% SDS, 40% Glycerol, 0.02% bromophenol blue, add 200 μL 2-Mercaptoethanol to 800 μL buffer right before use), boiled at 95° C. for 5 min and loaded onto an SDS-PAGE gel (4% stacking gel, 10% separating gel). Then perform SDS-PAGE separation at a constant voltage of 90 V for about 110 minutes. At the end of electrophoresis, cut the separation gel and imaged with an Amersham Imager 600 (GE Healthcare) at 520 nm. The gel was then stained with Coomassie Brilliant Blue staining solution (0.1% Coomassie brilliant blue, 10% acetic acid, 50% methanol) for 30 min and destained with destaining solution (10% acetic acid, 30% methanol) to remove background color.

[2] = test system: ATP-binding proteins in HEK 293T cell lysates; experiment: In-gel fluorescence imaging of HEK 293T cell lysates labeled with the ATP-N probe; details: 10 μM ATP-N probe, FIG. 23c
[3] = test system: GTP-binding proteins in HEK 293T cell lysates; experiment: Proteomic LC-MS/MS analysis of HEK 293T cell lysate labeled with GTP probes; design: species or system human
Protocol: Under optimized conditions, HEK 293T cell lysates were labeled using the GTP photoaffinity probes. Peptide samples were prepared via the On-Beads enzymatic digestion method for proteomic study. Approximately 1 mg of proteins was labeled with 0.1 mM GTP probe and irradiated with 365-nm UV light for 30 min. To the solution were added freshly prepared tris-(2-carboxyethyl)phosphine (TCEP) until its concentration reached 1 mM, and a CuAAC reaction mixture to reach a final concentration of 1 mM CuSO4, 0.1 mM tris[(1-benzyl-1H-1,2,3-triazol-4-yl)methyl]amine (TBTA), and 0.5 mM biotin-PEG3-azide (for GTP-O probe labeled samples), or 0.5 mM biotin-DADPS-azide (for GTP-N probe labeled samples). The mixture was vortexed at room temperature for 2 hours and then precipitated in ice-cold methanol overnight.
The precipitated proteins were dissolved in 100 μL 4% SDS buffer (4% SDS, 150 mM NaCl, 50 mM HEPES, pH=7.4), and diluted with 900 μL SDS-free HEPES buffer (150 mM NaCl, 50 mM HEPES, pH=7.4). High-capacity streptavidin beads (50 μL per sample) were washed three times with 20 times volume of wash buffer (150 mM sodium chloride, 50 mM HEPES, pH=7.4) before adding to the samples. After incubation on a rotary shaker at room temperature for 2 hours, non-specifically bound proteins were washed away in a centrifugal filtration column using 1× PBS containing 1% SDS, 10× PBS, 1× PBS, water, and 50 mM ammonium bicarbonate solution with 8 M urea, each wash using 1 mL of solution for five times. The beads were transferred to a centrifuge tube using 50 mM ammonium bicarbonate solution containing 8 M urea and resuspended with 500 μL of this solution. The disulfide bonds were reduced by adding 20 mM TCEP and incubating at 37° C. for 1 hour, and then alkylated with 50 mM iodacetamide at room temperature in the dark for 30 minutes. After centrifugation at 3000 rpm for 2 minutes, the supernatant was gently removed. The beads were washed with 25 mM ammonium bicarbonate three times, resuspended in 100 μL 25 mM ammonium bicarbonate, and incubated with 1 μg of MS-grade trypsin (1 μg/μL) at 37° C. for 18 hrs.
The beads were washed with 200 μL of 25 mM ammonium bicarbonate solution, then centrifuged at 12000 rpm for 2 minutes to collect the supernatant. The procedure was repeated 6 times, and the supernatants were combined to obtain sample 1 (peptides without probe modification). For GTP-O probe labeled samples, the beads were resuspended in 200 μL of 70% acetonitrile solution containing 1% trifluoroacetic acid, vortexed for 5 minutes, then centrifuged at 12000 rpm for 2 minutes to collect the supernatant. The procedure was repeated 5 times, and the supernatants were combined to obtain sample 2 (containing probe-modified peptides). For GTP-N probe labeled samples, the beads were resuspended in 100 μL of 10% formic acid, incubated on a rotary shaker at room temperature for 30 minutes, then centrifuged at 12000 rpm for 2 minutes to collect the supernatant. The procedure was repeated 3 times, and the supernatants were combined. Trifluoroacetic acid was added to a final concentration of 1%, and incubated at 37° C. for 30 minutes to obtain sample 2. The peptide solutions were dried with a centrifugal concentrator and desalted using C18 tips, then frozen at −80° C. until LC-MS/MS detection. Samples were dissolved in 20 μL of pure water, 4 μL of sample 1 and 8 μL of sample 2 were injected for analysis.
An EASY-nLC 1200 liquid chromatography coupled with a Q-Exactive Orbitrap mass spectrometer was employed for LC-MS/MS analysis. A homemade C18 capillary column (inner diameter 75 μm, column length 18 cm) packed with Reprosil-Pur120 C18-AQ (Dr. maisch, particle size […]) was utilized as the separation column. The precolumn (inner diameter 150 μm, column length 4 cm) was packed with Reprosil-Pur120 C18-AQ (Dr. maisch, particle size 5 μm,). The mobile phase A was 0.1% formic acid, while mobile phase B was 0.1% formic acid in 80% acetonitrile, and the flow rate was 300 nL/min. […]

[4] = three biological replicates, 0.1 mM probe, control probe = GTP-ctrl probe

Compound: Nc1ncnc2c1ncn2[C@@H]1O[C@H](COP(=O)(O)OP(=O)(O)OP(=O)(O)O)[C@@H](O)[C@H]1O [ATP, adenosine triphosphate]
- competition effect on probe labeling (fluorescence of labeled bands) [1]: non-specific competition

Compound: Nc1nc2c(ncn2[C@@H]2O[C@H](COP(=O)([O-])[O-])[C@@H](O)[C@H]2O)c(=O)[nH]1.[Na+].[Na+] [GMP, guanosine 5′-monophosphate disodium salt]
- competition effect on probe labeling (fluorescence of labeled bands) [1]: non-specific competition

Compound: Nc1ncnc2c1ncn2[C@@H]1O[C@H](COP(=O)(O)O)[C@@H](O)[C@H]1O [AMP, reference compound]
- competition effect on ATP-N probe labeling [2]: not significant

Compound: C#CCCC1(CCOP(=O)(O)OP(=O)(O)OP(=O)(O)OC[C@H]2O[C@@H](n3cnc4c(=O)[nH]c(N)nc43)C(O)[C@H]2O)N=N1 (stereo partly shown) [GTP-O probe]
- probe-modified sites on labeled proteins ([3]; LC-MS/MS of sample 2 (probe-modified peptides)): not detected
- GTP-binding proteins identified [3, 4]: 95
- total proteins identified [3, 4]: 1808

Compound: Nc1nc2c(ncn2[C@@H]2O[C@H](COP(=O)(O)OP(=O)(O)OP(=O)(O)O)[C@@H](O)[C@H]2O)c(=O)[nH]1 [GTP, guanosine triphosphate]
- competition effect on probe labeling (fluorescence of labeled bands) [1]: significantly decrease the fluorescence intensity of several labeled proteins bands
